Source: US20250066350A1, “AROMATIC HETEROCYCLE-SUBSTITUTED COMPOUNDS, AND PREPARATION METHOD THEREFOR AND USE THEREOF” (Innovstone Therapeutics Limited, priority 2021, published 2025)

Legend:
ATR enzyme = ATR enzyme (Homo sapiens (Human), UniProt Q13535); test: Inhibitory effect on ATR enzyme (HTRF, phospho-P53); type: biochemical; details: 90 minutes incubation, 150 nM ATP final; read-out: IC50 for ATR enzyme inhibition
Outline: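 Recombinant ATR phosphorylating GST-tagged P53 with 150 nM ATP final (40 nM final P53), 10-point compound series from 2985.0 to 0.15 nM, 0.498% DMSO, 90 min at room temperature. Detection with anti-phospho-p53-Eu/anti-GST-d2 overnight at 4° C in dark; HTRF 665/612 ratio used to derive IC50.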

LoVo cells = test: LoVo cell proliferation experiment (CellTiter-Glo, intracellular ATP); type: cell-based; details: 96 h; LoVo human colon cancer cells, 4 days; read-out: IC50 for inhibition of LoVo cell proliferation
Method: The following method is used to evaluate the inhibitory effect of the compounds of the present invention on LoVo cell proliferation according to the IC50 values by means of detecting the intracellular ATP content. The experimental method is briefly described as follows:
1. LoVo, human colon cancer tumor cells (Co-bioer, CBP60032)
LoVo cells were cultured in F-12K medium containing 10% FBS and passaged 2 to 3 times a week at a split ratio of 1:3 or 1:5. During passage, the cells were trypsinized and transferred to a centrifuge tube. The tube was centrifuged at 1000 rpm for 5 minutes, the supernatant medium was discarded, and fresh medium was added to resuspend the cells. 100 μL of cell suspension at a density of 1.5×10^4 cells/mL was added to a 96-well cell culture plate, and 100 μL of complete medium only was added to the periphery wells of the 96-well plate. The culture plate was incubated in an incubator for 24 hours (37° C., 5% CO2).
The sample to be tested was diluted to 1 mM with DMSO, diluted 3-fold serially to 8 concentrations, and prepared to 200× dilution with cell culture medium. Blank and control wells were set. 5 μL of the solution containing the compound to be tested prepared in gradient concentrations was added to 95 μL of fresh medium. 100 μL of 1× culture medium containing the compound was added to the culture plate. The culture plate was incubated in an incubator for 4 days (37° C., 5% CO2). 50 μL of CellTiter-Glo reagent was added to each well of the 96-well cell culture plate, and the plate was placed at room temperature in the dark for 5-10 min. The chemiluminescent signal values were read in PHERAstar, and data were processed using GraphPad software.
The inhibitory effect of the compounds of the present invention on LoVo cell proliferation can be determined by the test described above, and the measured IC50 values are shown in Table 2.

SNU-601 cells = test: SNU-601 cell proliferation experiment (CellTiter-Glo, intracellular ATP); type: cell-based; details: 120 h; SNU-601 human gastric cancer cells, 5 days; read-out: IC50 for inhibition of SNU-601 cell proliferation
Outline: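 Human gastric cancer cells in RPMI 1640/10% FBS plated and settled 24 h before adding compounds in a 10-point 3-fold series (2 mM DMSO top stock). Exposure 5 days at 37 °C, 5% CO2. Viability by CellTiter-Glo luminescence (ATP); IC50 from the curves.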

ATR enzyme, sequence (Q13535 whole entry): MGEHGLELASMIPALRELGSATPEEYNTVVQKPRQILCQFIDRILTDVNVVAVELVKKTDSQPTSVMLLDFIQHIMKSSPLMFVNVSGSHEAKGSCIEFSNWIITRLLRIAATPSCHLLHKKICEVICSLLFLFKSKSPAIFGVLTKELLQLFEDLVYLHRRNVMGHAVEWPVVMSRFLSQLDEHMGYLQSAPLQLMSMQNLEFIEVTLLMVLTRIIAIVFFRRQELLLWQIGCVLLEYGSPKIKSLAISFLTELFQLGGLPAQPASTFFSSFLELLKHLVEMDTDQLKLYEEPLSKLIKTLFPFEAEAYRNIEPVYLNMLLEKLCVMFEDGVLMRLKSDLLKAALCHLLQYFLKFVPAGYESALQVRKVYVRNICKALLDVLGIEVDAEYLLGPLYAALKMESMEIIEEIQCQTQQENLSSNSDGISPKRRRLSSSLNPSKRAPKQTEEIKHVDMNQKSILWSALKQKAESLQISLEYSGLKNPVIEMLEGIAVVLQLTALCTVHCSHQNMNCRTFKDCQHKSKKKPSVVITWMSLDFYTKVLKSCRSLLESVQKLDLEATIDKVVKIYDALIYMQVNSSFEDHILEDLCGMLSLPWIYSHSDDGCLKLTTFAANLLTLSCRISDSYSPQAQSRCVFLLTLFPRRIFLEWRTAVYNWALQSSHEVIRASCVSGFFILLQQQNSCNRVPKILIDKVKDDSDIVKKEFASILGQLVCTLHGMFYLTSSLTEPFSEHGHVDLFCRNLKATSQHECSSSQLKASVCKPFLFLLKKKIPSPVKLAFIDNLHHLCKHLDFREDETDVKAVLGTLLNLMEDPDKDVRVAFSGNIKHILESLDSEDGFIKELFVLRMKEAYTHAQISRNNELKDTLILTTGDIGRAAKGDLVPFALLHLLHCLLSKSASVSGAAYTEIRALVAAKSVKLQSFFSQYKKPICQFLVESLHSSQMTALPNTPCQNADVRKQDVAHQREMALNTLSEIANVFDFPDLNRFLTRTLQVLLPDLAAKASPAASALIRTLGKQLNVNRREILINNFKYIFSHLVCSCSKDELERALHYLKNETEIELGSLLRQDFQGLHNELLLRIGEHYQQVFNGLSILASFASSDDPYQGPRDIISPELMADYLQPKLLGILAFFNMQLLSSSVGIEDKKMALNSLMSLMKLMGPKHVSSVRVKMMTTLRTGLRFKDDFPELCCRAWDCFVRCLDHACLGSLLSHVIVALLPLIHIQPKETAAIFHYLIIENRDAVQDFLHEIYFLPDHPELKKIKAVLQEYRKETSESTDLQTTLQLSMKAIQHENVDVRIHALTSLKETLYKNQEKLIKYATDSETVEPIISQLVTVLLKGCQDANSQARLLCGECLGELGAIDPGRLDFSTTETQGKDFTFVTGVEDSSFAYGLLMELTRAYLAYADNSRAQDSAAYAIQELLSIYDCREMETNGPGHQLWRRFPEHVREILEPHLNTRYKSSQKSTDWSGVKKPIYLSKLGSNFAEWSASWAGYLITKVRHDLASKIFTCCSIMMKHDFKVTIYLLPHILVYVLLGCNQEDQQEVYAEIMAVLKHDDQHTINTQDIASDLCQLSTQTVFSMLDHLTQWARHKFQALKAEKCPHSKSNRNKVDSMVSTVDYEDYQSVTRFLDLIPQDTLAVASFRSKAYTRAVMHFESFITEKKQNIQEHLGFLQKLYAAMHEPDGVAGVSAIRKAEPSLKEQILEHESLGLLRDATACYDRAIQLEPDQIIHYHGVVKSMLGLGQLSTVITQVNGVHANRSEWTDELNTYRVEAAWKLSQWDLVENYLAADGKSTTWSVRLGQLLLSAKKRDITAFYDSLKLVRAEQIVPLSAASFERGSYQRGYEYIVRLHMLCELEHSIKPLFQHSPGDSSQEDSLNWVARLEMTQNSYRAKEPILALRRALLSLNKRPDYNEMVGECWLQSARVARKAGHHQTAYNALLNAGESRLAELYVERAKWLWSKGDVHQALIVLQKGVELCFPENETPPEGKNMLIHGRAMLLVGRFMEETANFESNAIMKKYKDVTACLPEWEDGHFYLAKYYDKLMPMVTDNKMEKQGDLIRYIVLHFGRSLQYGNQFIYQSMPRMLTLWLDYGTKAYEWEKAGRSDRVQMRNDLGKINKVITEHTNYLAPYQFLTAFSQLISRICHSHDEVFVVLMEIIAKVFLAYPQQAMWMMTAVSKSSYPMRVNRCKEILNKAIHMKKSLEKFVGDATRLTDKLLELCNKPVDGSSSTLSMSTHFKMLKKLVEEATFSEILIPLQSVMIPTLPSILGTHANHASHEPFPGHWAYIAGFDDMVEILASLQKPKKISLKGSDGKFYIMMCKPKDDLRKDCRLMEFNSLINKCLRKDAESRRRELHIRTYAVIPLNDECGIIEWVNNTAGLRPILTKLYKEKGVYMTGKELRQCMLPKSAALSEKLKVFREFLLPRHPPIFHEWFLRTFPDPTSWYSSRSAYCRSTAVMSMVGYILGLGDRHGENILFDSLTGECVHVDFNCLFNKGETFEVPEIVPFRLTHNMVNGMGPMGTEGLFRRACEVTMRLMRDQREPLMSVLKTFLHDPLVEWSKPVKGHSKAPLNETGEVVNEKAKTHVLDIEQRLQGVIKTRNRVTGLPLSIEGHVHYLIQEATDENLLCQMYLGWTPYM
ATR enzyme, sequence (Q8WXE1 whole entry partner): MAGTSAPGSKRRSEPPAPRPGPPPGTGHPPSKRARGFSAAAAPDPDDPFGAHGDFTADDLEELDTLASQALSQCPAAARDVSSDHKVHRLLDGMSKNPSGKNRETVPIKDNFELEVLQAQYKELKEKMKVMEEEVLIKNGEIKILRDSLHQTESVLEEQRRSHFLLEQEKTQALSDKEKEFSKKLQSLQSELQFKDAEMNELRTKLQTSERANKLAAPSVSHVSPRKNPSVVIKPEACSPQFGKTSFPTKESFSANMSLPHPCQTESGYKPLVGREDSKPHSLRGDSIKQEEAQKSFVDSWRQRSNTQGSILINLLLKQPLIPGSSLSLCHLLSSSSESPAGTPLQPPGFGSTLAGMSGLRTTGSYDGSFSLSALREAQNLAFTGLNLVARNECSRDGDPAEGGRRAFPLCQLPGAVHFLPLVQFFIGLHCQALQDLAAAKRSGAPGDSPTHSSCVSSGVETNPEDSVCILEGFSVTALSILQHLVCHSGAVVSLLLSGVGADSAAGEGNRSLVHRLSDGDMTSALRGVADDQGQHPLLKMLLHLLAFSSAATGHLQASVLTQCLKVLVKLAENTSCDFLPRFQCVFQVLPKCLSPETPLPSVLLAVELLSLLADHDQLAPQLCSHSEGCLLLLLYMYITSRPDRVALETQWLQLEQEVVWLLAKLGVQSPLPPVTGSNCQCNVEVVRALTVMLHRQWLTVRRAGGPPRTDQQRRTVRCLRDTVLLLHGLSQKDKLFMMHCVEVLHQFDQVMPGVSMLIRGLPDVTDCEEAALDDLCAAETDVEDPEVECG

Row | Structure (SMILES) | IC50 (ATR enzyme) [nM] | IC50 (LoVo cells) [nM] | IC50 (SNU-601 cells) [nM]
1 | C#CC1CCC(O)(c2cc(N3CCOC[C@H]3C)nc3c2cnn3-c2cc[nH]n2)CC1 (stereo partly drawn) [Example 147, (R)-4-ethynyl-1-(6-(3-methylmorpholinyl)-1-(1H-pyrazolyl-3-yl)-1H-pyrazolyl[3,4-b]pyridin-4-yl)cyclohexanol] | ≤ 10 | ≤ 20 | ≤ 10
2 | C[C@@H]1COCCN1c1cc(-c2ccc(NC(=O)c3cocn3)cc2F)c2cnn(-c3cc[nH]n3)c2n1 [Example 235] | ≤ 10 | 20 to 100 | 10 to 100
